In US8192962B2, “Processes for detecting toxic substances” (Daikin Industries, Ltd., priority 2001, dated 2012):

Tested on: Metabolism protein genes
Assay: DNA chip mRNA expression in yeast, metabolism protein genes (Table 7)
Type: cell-based, Saccharomyces cerevisiae S288C
Description: Yeast (Saccharomyces cerevisiae S288C (α SUC2mal mel gap2 CUP1)) were incubated at 25° C. on YPD medium (yeast extract 1%, polypepton 2%, glucose 2%). One of toxic chemical substances was added to the cells at logarithmic growth phase, and the cells were further incubated for two hours. Cells were cultured without any chemical substance in the same condition, and were used as control. Concentrations of the chemical substances were defined to inhibit the growth of the yeast but not lead to death.
After completion of the incubation, the culture was centrifuged to collect the cells. To the cells, sodium acetate buffer (50 mM sodium acetate, 10 mM EDTA, 1% SDS) was added, and the mixture was shaken at 65° C. for five minutes, followed by returning to room temperature, and obtaining the supernatant, of which the procedures were repeated two times. To the supernatant, ½ amount of a solution of phenol/chloroform was added, and the mixture was centrifuged to give a supernatant, which was added with an equal amount of chloroform, and the mixture was centrifuged to give a supernatant. To the supernatant, an equal amount of isopropanol containing 0.3 M sodium acetate was added, and the mixture was allowed to stand at room temperature for 30 minutes, after which the mixture was centrifuged to give a sediment of the whole RNAs. Seventy % ethanol was added to the sediment, and the mixture was again centrifuged to give a sediment, which was then dried and dissolved in water. mRNA was isolated from the whole RNAs as followings. In view of the fact that a poly A chain is attached to the 3′ terminus of mRNA, a polynucleotide having a poly T structure which was immobilized on the surface of latex beads was used to trap the mRNA, and then the mRNA was washed and eluted with spine column (Oligotex-dT30<Super>mRNA Purification Kit, Takara). Reverse transcription of the mRNA was conducted with a reverse transcriptase (Super Script II Reverse Transcriptase; catalogue No. 18064-014, GibcoBRL) using fluorescence-labeled nucleotides to give cDNAs that were introduced with Cy3-dUTP or Cy5-dUTP during the reverse transcription.
The labeled cDNAs were dissolved in TE buffer (10mM Tris-HCl/1 mM EDTA, pH8.0), and the solution was dropped on the DNA chip containing the whole genes of yeast (DNA Chip Research Inc. Japan) so that the cDNAs were hybridized on the DNA chip at 65° C. for over 12 hours. The fluoresces intensity of the DNA chip was read with a scanner, and the ratio relative to the fluorescence intensity resulting from the absence of chemical substance was estimated as the following, which is shown in Tables 1 to 9: […]

Cl[C@H]1[C@H](Cl)[C@@H](Cl)[C@@H](Cl)[C@H](Cl)[C@H]1Cl [(7), γ-hexachlorocyclohexane]
The level of expressed mRNA in the presence of chemical substance/The level of expressed mRNA in the absence of chemical substance (yeast gene YKL035W): 0.6 | level of expressed mRNA in the presence/in the absence of chemical substance (yeast gene YKL060C): 1.2 | The level of expressed mRNA in the presence of chemical substance/The level of expressed mRNA in the absence of chemical substance (yeast gene YKL091C): 1.9 | The level of expressed mRNA in the presence of chemical substance/The level of expressed mRNA in the absence of chemical substance (yeast gene YKL104C): 2.3 | level of expressed mRNA in the presence/in the absence of chemical substance (yeast gene YKL148C): 0.6 | The level of expressed mRNA in the presence of chemical substance/The level of expressed mRNA in the absence of chemical substance (yeast gene YKL152C): 1.5 | level of expressed mRNA in the presence/in the absence of chemical substance (yeast gene YKL157W): 1.9 | The level of expressed mRNA in the presence of chemical substance/The level of expressed mRNA in the absence of chemical substance (yeast gene YKL213C): 1.0 | The level of expressed mRNA in the presence of chemical substance/The level of expressed mRNA in the absence of chemical substance (yeast gene YKL215C): 1.1 | level of expressed mRNA in the presence/in the absence of chemical substance (yeast gene YKR034W): 0.7 | The level of expressed mRNA in the presence of chemical substance/The level of expressed mRNA in the absence of chemical substance (yeast gene YKR039W): 1.0 | The level of expressed mRNA in the presence of chemical substance/The level of expressed mRNA in the absence of chemical substance (yeast gene YLL058W): 1.5 | level of expressed mRNA in the presence/in the absence of chemical substance (yeast gene YLR006C): 1.1 | level of expressed mRNA in the presence/in the absence of chemical substance (yeast gene YLR044C): 1.3 | level of expressed mRNA in the presence/in the absence of chemical substance (yeast gene YLR056W): 0.8 | level of expressed mRNA in the presence/in the absence of chemical substance (yeast gene YLR058C): 0.5 | level of expressed mRNA in the presence/in the absence of chemical substance (yeast gene YLR081W): 0.7 | level of expressed mRNA in the presence/in the absence of chemical substance (yeast gene YLR089C): 1.6 | The level of expressed mRNA in the presence of chemical substance/The level of expressed mRNA in the absence of chemical substance (yeast gene YLR180W): 0.6 | The level of expressed mRNA in the presence of chemical substance/The level of expressed mRNA in the absence of chemical substance (yeast gene YLR273C): 1.2 | level of expressed mRNA in the presence/in the absence of chemical substance (yeast gene YLR284C): 0.8 | The level of expressed mRNA in the presence of chemical substance/The level of expressed mRNA in the absence of chemical substance (yeast gene YLR299W): 0.8 | The level of expressed mRNA in the presence of chemical substance/The level of expressed mRNA in the absence of chemical substance (yeast gene YLR300W): 0.5 | level of expressed mRNA in the presence/in the absence of chemical substance (yeast gene YLR304C): 0.6 | The level of expressed mRNA in the presence of chemical substance/The level of expressed mRNA in the absence of chemical substance (yeast gene YLR307W): 1.5 | The level of expressed mRNA in the presence of chemical substance/The level of expressed mRNA in the absence of chemical substance (yeast gene YLR348C): 0.9 | level of expressed mRNA in the presence/in the absence of chemical substance (yeast gene YLR354C): 1.1 | level of expressed mRNA in the presence/in the absence of chemical substance (yeast gene YLR372W): 0.2 | level of expressed mRNA in the presence/in the absence of chemical substance (yeast gene YML022W): 0.6 | The level of expressed mRNA in the presence of chemical substance/The level of expressed mRNA in the absence of chemical substance (yeast gene YML054C): 1.2 | The level of expressed mRNA in the presence of chemical substance/The level of expressed mRNA in the absence of chemical substance (yeast gene YML070W): 3.1 | The level of expressed mRNA in the presence of chemical substance/The level of expressed mRNA in the absence of chemical substance (yeast gene YML100W): 2.2 | The level of expressed mRNA in the presence of chemical substance/The level of expressed mRNA in the absence of chemical substance (yeast gene YMR008C): 0.9 | level of expressed mRNA in the presence/in the absence of chemical substance (yeast gene YMR011W): 0.8 | level of expressed mRNA in the presence/in the absence of chemical substance (yeast gene YMR015C): 0.4 | The level of expressed mRNA in the presence of chemical substance/The level of expressed mRNA in the absence of chemical substance (yeast gene YMR020W): 2.7 | level of expressed mRNA in the presence/in the absence of chemical substance (yeast gene YMR083W): 1.7 | The level of expressed mRNA in the presence of chemical substance/The level of expressed mRNA in the absence of chemical substance (yeast gene YMR105C): 2.8 | The level of expressed mRNA in the presence of chemical substance/The level of expressed mRNA in the absence of chemical substance (yeast gene YMR189W): 0.8 | level of expressed mRNA in the presence/in the absence of chemical substance (yeast gene YMR205C): 0.9 | level of expressed mRNA in the presence/in the absence of chemical substance (yeast gene YMR261C): 1.3 | The level of expressed mRNA in the presence of chemical substance/The level of expressed mRNA in the absence of chemical substance (yeast gene YMR271C): 3.4 | The level of expressed mRNA in the presence of chemical substance/The level of expressed mRNA in the absence of chemical substance (yeast gene YMR296C): 0.6 | level of expressed mRNA in the presence/in the absence of chemical substance (yeast gene YMR323W): 1.1 | The level of expressed mRNA in the presence of chemical substance/The level of expressed mRNA in the absence of chemical substance (yeast gene YNL012W): 2.0 | level of expressed mRNA in the presence/in the absence of chemical substance (yeast gene YNL025C): 1.2 | The level of expressed mRNA in the presence of chemical substance/The level of expressed mRNA in the absence of chemical substance (yeast gene YNL045W): 1.8 | The level of expressed mRNA in the presence of chemical substance/The level of expressed mRNA in the absence of chemical substance (yeast gene YNL104C): 0.6 | The level of expressed mRNA in the presence of chemical substance/The level of expressed mRNA in the absence of chemical substance (yeast gene YNL106C): 0.9 | The level of expressed mRNA in the presence of chemical substance/The level of expressed mRNA in the absence of chemical substance (yeast gene YNL169C): 0.7 | level of expressed mRNA in the presence/in the absence of chemical substance (yeast gene YNL192W): 1.0 | The level of expressed mRNA in the presence of chemical substance/The level of expressed mRNA in the absence of chemical substance (yeast gene YNL231C): 2.5 | The level of expressed mRNA in the presence of chemical substance/The level of expressed mRNA in the absence of chemical substance (yeast gene YNL322C): 0.9 | The level of expressed mRNA in the presence of chemical substance/The level of expressed mRNA in the absence of chemical substance (yeast gene YNL331C): 1.9 | The level of expressed mRNA in the presence of chemical substance/The level of expressed mRNA in the absence of chemical substance (yeast gene YNL332W): 2.1 | The level of expressed mRNA in the presence of chemical substance/The level of expressed mRNA in the absence of chemical substance (yeast gene YNR019W): 0.8 | The level of expressed mRNA in the presence of chemical substance/The level of expressed mRNA in the absence of chemical substance (yeast gene YNR033W): 1.2 | The level of expressed mRNA in the presence of chemical substance/The level of expressed mRNA in the absence of chemical substance (yeast gene YNR059W): 1.6 | The level of expressed mRNA in the presence of chemical substance/The level of expressed mRNA in the absence of chemical substance (yeast gene YOL058W): 0.4 | level of expressed mRNA in the presence/in the absence of chemical substance (yeast gene YOL086C): 1.9 | level of expressed mRNA in the presence/in the absence of chemical substance (yeast gene YOL108C): 1.1 | level of expressed mRNA in the presence/in the absence of chemical substance (yeast gene YOL116W): 1.5 | The level of expressed mRNA in the presence of chemical substance/The level of expressed mRNA in the absence of chemical substance (yeast gene YOL126C): 1.4 | The level of expressed mRNA in the presence of chemical substance/The level of expressed mRNA in the absence of chemical substance (yeast gene YOL153C): 3.3 | level of expressed mRNA in the presence/in the absence of chemical substance (yeast gene YOL156W): 1.0 | The level of expressed mRNA in the presence of chemical substance/The level of expressed mRNA in the absence of chemical substance (yeast gene YOL165C): 1.4 | level of expressed mRNA in the presence/in the absence of chemical substance (yeast gene YOR002W): 1.0 | level of expressed mRNA in the presence/in the absence of chemical substance (yeast gene YOR085W): 0.6 | The level of expressed mRNA in the presence of chemical substance/The level of expressed mRNA in the absence of chemical substance (yeast gene YOR099W): 1.0 | level of expressed mRNA in the presence/in the absence of chemical substance (yeast gene YOR103C): 1.2 | level of expressed mRNA in the presence/in the absence of chemical substance (yeast gene YOR108W): 1.2 | level of expressed mRNA in the presence/in the absence of chemical substance (yeast gene YOR128C): 0.7 | The level of expressed mRNA in the presence of chemical substance/The level of expressed mRNA in the absence of chemical substance (yeast gene YOR130C): 1.3 | level of expressed mRNA in the presence/in the absence of chemical substance (yeast gene YOR142W): 1.0 | level of expressed mRNA in the presence/in the absence of chemical substance (yeast gene YOR176W): 0.5 | level of expressed mRNA in the presence/in the absence of chemical substance (yeast gene YOR178C): 0.9 | level of expressed mRNA in the presence/in the absence of chemical substance (yeast gene YOR251C): 1.0 | The level of expressed mRNA in the presence of chemical substance/The level of expressed mRNA in the absence of chemical substance (yeast gene YOR336W): 1.2 | The level of expressed mRNA in the presence of chemical substance/The level of expressed mRNA in the absence of chemical substance (yeast gene YOR347C): 0.9 | level of expressed mRNA in the presence/in the absence of chemical substance (yeast gene YOR348C): 0.8 | The level of expressed mRNA in the presence of chemical substance/The level of expressed mRNA in the absence of chemical substance (yeast gene YPL017C): 1.4 | level of expressed mRNA in the presence/in the absence of chemical substance (yeast gene YPL028W): 1.3 | level of expressed mRNA in the presence/in the absence of chemical substance (yeast gene YPL057C): 0.6 | level of expressed mRNA in the presence/in the absence of chemical substance (yeast gene YPL135W): 1.2 | level of expressed mRNA in the presence/in the absence of chemical substance (yeast gene YPL148C): 1.0 | The level of expressed mRNA in the presence of chemical substance/The level of expressed mRNA in the absence of chemical substance (yeast gene YPR026W): 1.3 | level of expressed mRNA in the presence/in the absence of chemical substance (yeast gene YPR113W): 1.2 | level of expressed mRNA in the presence/in the absence of chemical substance (yeast gene YPR165W): 1.0 | The level of expressed mRNA in the presence of chemical substance/The level of expressed mRNA in the absence of chemical substance (yeast gene YPR167C): 1.2 | level of expressed mRNA in the presence/in the absence of chemical substance (yeast gene YPR183W): 1.2
